Experiments:
[1] = system: primary human AML cells; assay: Treatment of primary human AML cells; assay type: cell-based
[2] = system: CYP3A4; assay: Mechanistic static DDI risk assessment with in vitro data: CYP3A4 induction; assay type: in vitro ADME; details: at the recommended dosage
[3] = system: CYP2C9; assay: Mechanistic static DDI risk assessment with in vitro data: CYP2C9 induction; assay type: in vitro ADME; details: at the recommended dosage
[4] = in vivo
[5] = system: rats; details: rat, in vivo
[6] = system: OATP1B1; assay: Mechanistic static DDI risk assessment with in vitro data: OATP1B1 inhibition; assay type: in vitro ADME; details: at the recommended dosage
[7] = system: cell lines expressing mutated IDH1 proteins (R132H, R132L, R132S, R132G, and R132C); assay: 2-HG production in cell lines expressing mutated IDH1 proteins; assay type: cell-based; details: read-out: IC50 for suppression of 2-HG production
[8] = system: mutated IDH1; assay: Nonclinical pharmacology: inhibition of mutated IDH1; assay type: biochemical
[9] = system: adult patients with R/R AML or myelodysplastic syndrome (MDS) harboring an IDH1 R132 mutation; assay: Study 2102-HEM-101 dose escalation/expansion portion
[10] = system: patients with R/R AML; assay: Study 2102-HEM-101 pivotal cohort: safety
[11] = system: CYP2C19; assay: Hepatocyte induction study: CYP2C19; assay type: in vitro ADME
[12] = system: cynomolgus monkeys; details: cynomolgus monkey, in vivo
[13] = system: adult patients with R/R AML harboring an IDH1 R132 mutation; assay: Study 2102-HEM-101 pivotal cohort: efficacy; assay type: in vivo, human
[14] = system: patients with R/R AML; details: in vivo
[15] = system: pregnant rats; assay: Embryo-fetal development study in rats; assay type: in vivo
[16] = target: cytochrome P450 (CYP)3A4 (Homo sapiens, UniProt P08684); assay: Metabolism by cytochrome P450 enzymes; assay type: in vitro ADME; details: minor contributions from CYP2C8, CYP2C9, CYP1A2, CYP2C19
[17] = system: mutated IDH2 proteins; assay: Nonclinical pharmacology: inhibition of mutated IDH2; assay type: biochemical
[18] = QTc interval assessment in patients; assay type: in vivo, human; details: elevated exposures under fed condition
[19] = system: 2-HG plasma concentrations; assay: PK/PD analysis of 2-HG plasma concentrations in patients with AML; assay type: in vivo, human; details: 150 mg BID, by the end of the first cycle; %CV 122%
[20] = system: CYP2B6; assay: Mechanistic static DDI risk assessment with in vitro data: CYP2B6 induction; assay type: in vitro ADME; details: at the recommended dosage
[21] = system: CYP2C8; assay: Mechanistic static DDI risk assessment with in vitro data: CYP2C8 induction; assay type: in vitro ADME; details: at the recommended dosage
[22] = target: wild type IDH1 (Homo sapiens, UniProt O75874); assay: Nonclinical pharmacology: inhibition of wild type IDH1; assay type: biochemical
[23] = system: CYP1A2; assay: Mechanistic static DDI risk assessment with in vitro data: CYP1A2 induction; assay type: in vitro ADME; details: at the recommended dosage
[24] = system: pregnant rabbits; assay: Embryo-fetal development study in rabbits; assay type: in vivo
[25] = Food effect study in healthy subjects; assay type: in vivo, human; details: single 150 mg dose
[26] = system: rats; assay type: in vivo; details: after 48 hours of exposure to UV light
[27] = Clinical drug-drug interaction with rifampin or itraconazole; assay type: in vivo
[28] = Clinical pharmacokinetics after oral administration; assay type: in vivo, human
[29] = system: patients with R/R AML and a susceptible IDH1 mutation; details: cited from earlier work
[30] = concomitant multiple doses of rifampin, a strong CYP3A inducer

wild type IDH1, sequence (O75874 whole entry): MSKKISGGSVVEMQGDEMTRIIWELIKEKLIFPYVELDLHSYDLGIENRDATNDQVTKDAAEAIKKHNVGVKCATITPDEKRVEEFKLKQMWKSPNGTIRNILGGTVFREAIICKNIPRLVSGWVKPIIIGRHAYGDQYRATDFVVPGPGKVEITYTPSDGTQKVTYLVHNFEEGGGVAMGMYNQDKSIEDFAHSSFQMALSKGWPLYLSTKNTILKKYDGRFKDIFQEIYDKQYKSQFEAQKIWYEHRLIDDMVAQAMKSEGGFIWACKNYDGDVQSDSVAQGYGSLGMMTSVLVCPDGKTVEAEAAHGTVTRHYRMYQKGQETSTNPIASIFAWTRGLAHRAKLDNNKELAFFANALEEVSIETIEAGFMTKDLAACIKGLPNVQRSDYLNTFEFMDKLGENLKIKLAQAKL
cytochrome P450 (CYP)3A4, sequence (P08684 whole entry): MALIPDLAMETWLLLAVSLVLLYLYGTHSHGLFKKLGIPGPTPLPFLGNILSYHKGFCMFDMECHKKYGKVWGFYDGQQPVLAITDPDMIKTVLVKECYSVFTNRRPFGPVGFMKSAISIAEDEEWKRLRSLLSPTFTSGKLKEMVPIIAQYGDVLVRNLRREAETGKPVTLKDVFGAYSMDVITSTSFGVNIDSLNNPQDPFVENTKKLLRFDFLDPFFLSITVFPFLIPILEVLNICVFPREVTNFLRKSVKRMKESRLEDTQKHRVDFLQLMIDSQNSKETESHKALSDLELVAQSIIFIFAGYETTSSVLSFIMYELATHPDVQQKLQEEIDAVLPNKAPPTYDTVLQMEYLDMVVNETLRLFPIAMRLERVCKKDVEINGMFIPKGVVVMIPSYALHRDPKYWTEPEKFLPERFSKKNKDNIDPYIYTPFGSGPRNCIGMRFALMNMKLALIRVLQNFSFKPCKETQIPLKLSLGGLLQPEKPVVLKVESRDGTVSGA

## C[C@H](Nc1ccc(C#N)n(C)c1=O)c1cc2cc(Cl)ccc2[nH]c1=O [Olutasidenib, olutasidenib]
[1]
  2-HG production: suppressed 2-HG production
  cell differentiation: induced granulocytic/monocytic cell differentiation
  cell proliferation: increased cell proliferation
[2]
  CYP3A4 induction potential: may induce
[3]
  CYP2C9 induction potential: may induce
[4]
  tissue distribution: binding of olutasidenib to melanin-containing tissues
[5]
  general toxicology findings: altered glucose and lipid metabolism, inflammation, and the GI tract, liver, kidney, and cardiovascular system as the main organs of toxicity
[6]
  OATP1B1 inhibition potential: inhibit
[7]
  IC50: 8 to 116 nM
[8]
  inhibitory activity against mutated IDH1: inhibited
[9]; 150mg BID, dose escalation/expansion portion, 5/13 patients
  patients with CR, CRh or CRi (preliminary efficacy): 38%
[9]; dose escalation
  dose-limiting toxicities: no dose-limiting toxicities observed
[10]; 2 deaths, of on treatment deaths
  deaths due to complications from DS: 4%
[10]; 13 patients
  30-day mortality: 8%
[10]; 45 deaths
  deaths on treatment (on or within 28 days of the last dose): 29%
[10]; 101 of 153 patients
  total deaths: 66%
[10]; thirty-seven of 45 on treatment deaths
  on treatment deaths due to underlying AML or complications from AML: 82%
[11]
  potential to induce CYP2C19: cannot be ruled out
[12]
  general toxicology findings: altered glucose and lipid metabolism, inflammation, and the GI tract, liver, kidney, and cardiovascular system as the main organs of toxicity
[13]; 150 mg BID, 147 efficacy-evaluable patients, 95% CI 27-43%
  CR + CRh rate: 35%
[13]; 150mg BID, N=147
  CR + CRh, n (%): 51 (35) n (%)
  CR, n (%): 47 (32) n (%)
  Median DOCR: 28.1 months
  Median DOCRh: 3.6 months
[13]; 150 mg BID, N=147, 95% CI 13.5, NR
  median duration of CR + CRh (DOCR + CRh, duration of response): 25.9 months
[13]; 29 of 86 patients TD at baseline
  conversion from transfusion dependence (TD) to transfusion independence (TI): 34%
[13]; 39/61 patients
  maintenance of TI in patients TI at baseline: 64%
[13]; 41 out of 123 efficacy evaluable subjects, 95% CI 25.1%-42.4%
  CR + CRh rate at interim analysis for efficacy: 33%
[13]; sixteen of 147 patients
  patients able to proceed to allogeneic stem cell transplantation after treatment: 11%
[14]; human
  Abdominal Pain, Any Grade: 28 (18)
  Abdominal Pain, Grade ≥3: 1 (1)
  Arthralgia, Any Grade: 43 (28)
  Arthralgia, Grade ≥3: 4 (3)
  Constipation, Any Grade: 39 (26)
  Constipation, Grade ≥3: 0
  Cough, Any Grade: 26 (17)
  Cough, Grade ≥3: 1 (1)
  Diarrhea, Any Grade: 31 (20)
  Diarrhea, Grade ≥3: 2 (1)
  Differentiation Syndrome, Any Grade: 25 (16)
  Differentiation Syndrome, Grade ≥3: 13 (8)
  Dyspnea, Any Grade: 37 (24)
  Dyspnea, Grade ≥3: 4 (3)
  Edema, Any Grade: 27 (18)
  Edema, Grade ≥3: 4 (3)
  Fatigue/Malaise, Any Grade: 55 (36)
  Fatigue/Malaise, Grade ≥3: 2 (1)
  Grade 3 or higher adverse reaction: dyspnea: 5%
  Grade 3 or higher adverse reaction: hypertension: 5%
  Grade 3 or higher adverse reaction: leukocytosis: 9%
  Grade 3 or higher adverse reaction: transaminitis: 12%
  Grade 3 or higher differentiation syndrome: 8%
  Headache, Any Grade: 19 (13)
  Headache, Grade ≥3: 0
  Hypertension, Any Grade: 16 (10)
  Hypertension, Grade ≥3: 7 (5)
  Leukocytosis, Any Grade: 38 (25)
  Leukocytosis, Grade ≥3: 14 (9)
  Mucositis, Any Grade: 35 (23)
  Mucositis, Grade ≥3: 5 (3)
  Nausea, Any Grade: 57 (38)
  Nausea, Grade ≥3: 0
  Pyrexia, Any Grade: 36 (24)
  Pyrexia, Grade ≥3: 1 (1)
  QTc prolongation TEAE, Grade 3 or higher: 1%
  QTc prolongation TEAE, any grade: 8%
  Rash, Any Grade: 36 (24)
  Rash, Grade ≥3: 2 (1)
  Transaminitis, Any Grade: 31 (20)
  Transaminitis, Grade ≥3: 18 (12)
  Vomiting, Any Grade: 25 (16)
  Vomiting, Grade ≥3: 1 (1)
  differentiation syndrome (DS), all grades: 16%
  dose reductions due to adverse reactions: 11%
  median time to onset of DS: 14 days
  median time to onset of transaminitis: 1.2 months
  median time to resolution of transaminitis: 12 days
  patients who discontinued therapy due to an AR: 8%
  patients with DS who had olutasidenib held: 44%
  patients with DS who recovered after treatment or dosage interruption: 76%
  patients with a Grade 3 or 4 TEAE: 84%
  patients with a Grade 3 or 4 hepatotoxicity TEAE: 13%
  patients with dose held due to QTc prolongation: 1%
  patients with therapy discontinued due to a hepatobiliary AR: 5%
  patients with therapy reduced due to a hepatobiliary AR: 6%
  patients with treatment interrupted due to an AR: 32%
  rate of ALT elevation: 46%
  rate of AST elevation: 47%
  treatment discontinuation due to DS: 3%
  treatment discontinuation due to gallbladder disorders: 1%
  treatment discontinuation due to transaminitis: 3%
  treatment interruption due to DS: 7%
  treatment interruption due to transaminitis: 10%
[14]
  Hy's Law cases: no confirmed Hy’s Law cases
  patients with dose reduced or discontinued due to QTc prolongation: no patients
[15]
  embryo-fetal development findings: embryo-fetal death and altered fetal growth
[16]
  share of metabolism by CYP3A4: 90%
[17]
  inhibitory activity against mutated IDH2 proteins: little or no inhibitory activity
[18]
  QT prolongation expected under a fed condition: ≤ 30 ms
[19]
  mean reduction of 2-HG plasma concentration: 59.1%
[20]
  CYP2B6 induction potential: may induce
[21]
  CYP2C8 induction potential: may induce
[22]
  inhibitory activity against wild type IDH1: little or no inhibitory activity
[23]
  CYP1A2 induction potential: may induce
[24]
  embryo-fetal development findings: embryo-fetal death and altered fetal growth
[25]; CV% 18.3%
  mean increase of AUCinf with a high-fat meal: 83%
[25]; CV% 20.6%
  mean increase of Cmax with a high-fat meal: 191%
[26]
  phototoxicity finding: erythema in the skin
[27]; concomitant multiple doses of itraconazole, a strong CYP3A and P-gp inhibitor
  differences in PK with itraconazole: No clinically significant differences
[27]; [30]
  decrease of AUC with rifampin: 80%
  decrease of Cmax with rifampin: 43%
[28]; dose range of 100 to 300 mg
  dose proportionality of Cmax and AUC: increased less than proportionally
[28]; human, in vivo
  time to steady-state plasma levels: ≤ 14 days
[28]; human, plasma, po
  half-life: ~67 h
[28]; oral administration
  time to maximum plasma concentration (Cmax): approximately 4 hours

## N#Cc1ccnc(N2C(=O)CC[C@H]2C(=O)N(c2cncc(F)c2)[C@H](C(=O)NC2CC(F)(F)C2)c2ccccc2Cl)c1 [Ivosidenib, ivosidenib]
[29]; R/R AML with susceptible IDH1 mutation
  CR + CRh rate: 33%
[29]
  differentiation syndrome, all grades: 19%
  differentiation syndrome, grade 3 or higher: 13%
  median duration of response: 8.2 months
  rate of conversion of TD to TI: 37%
[29]; patients with R/R AML
  rate of ALT elevation: 15%
  rate of AST elevation: 27%
  rate of all grade QTc prolongation: 26%
